Results published in ChEMBL document CHEMBL1157605, “Hybrid molecules from xanomeline and tacrine: enhanced tacrine actions on cholinesterases and muscarinic M1 receptors” (J Med Chem, 2010).
Active and inactive are the calls of the source. The rule behind the calls is not given here.

How the values were obtained:
Acetylcholinesterase = Acetylcholinesterase (Electrophorus electricus, UniProt O42275)
Description: Inhibition of electric eel AChE by Ellman's method

Cholinesterase = Cholinesterase (Equus caballus, UniProt P81908)
Description: Inhibition of BChE from equine serum by Ellman's method

[1] = target: T1, Muscarinic acetylcholine receptor M1 (Homo sapiens) (UniProt P11229); conditions: CHO
T1 sequence (whole entry): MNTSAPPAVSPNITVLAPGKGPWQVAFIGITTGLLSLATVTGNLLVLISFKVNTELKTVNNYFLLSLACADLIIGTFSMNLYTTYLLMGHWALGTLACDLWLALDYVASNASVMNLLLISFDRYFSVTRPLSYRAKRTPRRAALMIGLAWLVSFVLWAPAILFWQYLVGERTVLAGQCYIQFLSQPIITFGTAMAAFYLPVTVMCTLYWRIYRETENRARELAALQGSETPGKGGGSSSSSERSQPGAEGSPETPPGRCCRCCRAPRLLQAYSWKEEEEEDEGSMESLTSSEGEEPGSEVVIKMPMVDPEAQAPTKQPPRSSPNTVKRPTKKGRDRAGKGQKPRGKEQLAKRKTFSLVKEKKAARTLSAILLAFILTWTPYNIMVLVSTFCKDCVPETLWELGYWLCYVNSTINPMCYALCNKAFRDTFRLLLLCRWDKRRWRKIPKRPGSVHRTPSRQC
Description: Displacement of [3H]NMS from human muscarinic M1 receptor expressed in CHO cells in ternary complex by EATCM analysis

[2] = target: T1, Muscarinic acetylcholine receptor M1 (Homo sapiens); conditions: CHO; remark: listed apart in the source
Description: Displacement of [3H]NMS from human muscarinic M1 receptor expressed in CHO cells in binary complex by EATCM analysis

Rattus norvegicus [3] = test: Antiamnesic activity in Wistar rat assessed as increase in total exploration time at 2 umol/100 g body weight, ip by eight-arm radial maze cognition test; format: functional, organism-based
Rattus norvegicus [4] = test: Antiamnesic activity against scopolamine-induced memory loss in Wistar rat assessed as increase in total exploration time at 2 umol/100 g body weight, ip by eight-arm radial maze cognition test; format: functional, organism-based

Sequence of Cholinesterase (P81908 whole entry): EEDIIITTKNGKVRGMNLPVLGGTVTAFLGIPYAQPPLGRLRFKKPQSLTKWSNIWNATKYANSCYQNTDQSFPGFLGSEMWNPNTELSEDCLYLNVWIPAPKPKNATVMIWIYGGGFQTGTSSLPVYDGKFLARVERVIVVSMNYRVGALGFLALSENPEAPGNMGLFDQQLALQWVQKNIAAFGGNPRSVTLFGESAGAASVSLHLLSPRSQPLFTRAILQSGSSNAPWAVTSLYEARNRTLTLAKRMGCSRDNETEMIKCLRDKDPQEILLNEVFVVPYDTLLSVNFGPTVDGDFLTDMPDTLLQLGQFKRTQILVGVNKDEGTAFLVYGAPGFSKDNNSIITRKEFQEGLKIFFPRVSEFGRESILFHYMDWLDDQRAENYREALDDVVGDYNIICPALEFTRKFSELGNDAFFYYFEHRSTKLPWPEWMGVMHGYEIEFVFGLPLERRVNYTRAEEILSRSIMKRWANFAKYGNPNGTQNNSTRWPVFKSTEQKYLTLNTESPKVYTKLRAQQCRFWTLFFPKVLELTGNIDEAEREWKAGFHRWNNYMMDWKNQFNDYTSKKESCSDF
Sequence of Acetylcholinesterase (O42275 whole entry): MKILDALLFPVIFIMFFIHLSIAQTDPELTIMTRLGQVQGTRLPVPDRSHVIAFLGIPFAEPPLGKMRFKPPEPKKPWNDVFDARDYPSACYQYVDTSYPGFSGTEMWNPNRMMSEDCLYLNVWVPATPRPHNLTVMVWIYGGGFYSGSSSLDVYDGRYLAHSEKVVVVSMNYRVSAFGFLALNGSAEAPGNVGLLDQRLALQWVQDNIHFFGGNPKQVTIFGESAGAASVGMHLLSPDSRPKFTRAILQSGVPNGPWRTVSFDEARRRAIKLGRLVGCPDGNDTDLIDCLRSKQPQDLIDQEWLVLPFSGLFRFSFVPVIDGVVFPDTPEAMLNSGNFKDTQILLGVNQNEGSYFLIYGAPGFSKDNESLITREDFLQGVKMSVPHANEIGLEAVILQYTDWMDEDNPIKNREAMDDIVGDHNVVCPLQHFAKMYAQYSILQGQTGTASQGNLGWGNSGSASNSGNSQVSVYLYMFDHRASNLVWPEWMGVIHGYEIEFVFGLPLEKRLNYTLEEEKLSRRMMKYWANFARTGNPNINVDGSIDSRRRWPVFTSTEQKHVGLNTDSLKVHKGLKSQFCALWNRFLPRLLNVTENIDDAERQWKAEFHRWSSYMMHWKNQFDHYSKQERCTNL

| Compound | IC50 (Acetylcholinesterase) [nM] | IC50 (Cholinesterase) [nM] | logKd [1] | logKd [2] | Activity (Rattus norvegicus [3]) | Activity (Rattus norvegicus [4]) |
| --- | --- | --- | --- | --- | --- | --- |
| CN1CCC=C(c2nsnc2OCCCCNCCCCCNc2c3c(nc4ccccc24)CCCC3)C1 | 21.9 | 12.3 | – | – | – | – |
| CCCCCCOc1nsnc1C1=CCCN(C)C1 | – | – | 4.94 | 7.4 | – | – |
| CN1CCC=C(c2nsnc2OCCCOCC(=O)NCCCNc2c3c(nc4ccccc24)CCCC3)C1 | 14.8 | 9.77 | 7.87 | 8.1 | – | – |
| CN1CCC=C(c2nsnc2OCCCOCC(=O)NCCCCNc2c3c(nc4ccccc24)CCCC3)C1 | 12 | 10.7 | – | – | – | – |
| CN1CCC=C(c2nsnc2OCCCOCCCC(=O)NCCCCCCCCNc2c3c(nc4ccccc24)CCCC3)C1 | 6.46 | 5.01 | 7.06 | 7.38 | – | – |
| CN1CCC=C(c2nsnc2OCCCOCCCC(=O)NCCCNc2c3c(nc4ccccc24)CCCC3)C1 | 10.7 | 10 | – | – | – | – |
| CN1CCC=C(c2nsnc2OCCCOCCCC(=O)NCCCCNc2c3c(nc4ccccc24)CCCC3)C1 | – | 6.76 | – | – | – | – |
| CN1CCC=C(c2nsnc2OCCCCNCCCCNc2c3c(nc4ccccc24)CCCC3)C1 | 43.7 | 16.2 | 7.49 | 8.13 | – | – |
| CN1CCC=C(c2nsnc2OCCCOCCCCC(=O)NCCCCCCCCNc2c3c(nc4ccccc24)CCCC3)C1 | 6.17 | 5.89 | – | – | – | – |
| CN1CCC=C(c2nsnc2OCCCOCCCCC(=O)NCCCNc2c3c(nc4ccccc24)CCCC3)C1 | 10.2 | 8.91 | – | – | – | – |
| CN1CCC=C(c2nsnc2OCCCOCC(=O)NCCCCCCCCNc2c3c(nc4ccccc24)CCCC3)C1 | 6.61 | 5.13 | 6.35 | 6.88 | Active | Active |
| CN1CCC=C(c2nsnc2OCCCOCCC(=O)NCCCCNc2c3c(nc4ccccc24)CCCC3)C1 | 10.7 | 9.12 | – | – | – | – |
| CN1CCC=C(c2nsnc2OCCCCNCCCCCCCCNc2c3c(nc4ccccc24)CCCC3)C1 | 26.3 | 13.5 | – | – | – | – |
| CN1CCC=C(c2nsnc2OCCCCNCCCNc2c3c(nc4ccccc24)CCCC3)C1 | 63.1 | 28.8 | – | – | – | – |
| CN1CCC=C(c2nsnc2OCCCOCCC(=O)NCCCCCCCCNc2c3c(nc4ccccc24)CCCC3)C1 | 22.9 | 13.2 | 6.7 | 7.57 | – | – |
| CN1CCC=C(c2nsnc2OCCCOCCCCC(=O)NCCCCNc2c3c(nc4ccccc24)CCCC3)C1 | 8.71 | 5.89 | – | – | – | – |
| CN1CCC=C(c2nsnc2OCCCOCCC(=O)NCCCNc2c3c(nc4ccccc24)CCCC3)C1 | 13.5 | 10.7 | 8.03 | 8.09 | – | – |
